Measured values reported in patent US12377110B2, “Fospropofol methods and compositions” (Epalex Corporation, priority 2019, dated 2025).

Columns and labels:
[1] = Study No. 15-4 toxicokinetics of fospropofol and propofol in plasma; type: in vivo, Beagle dogs; conditions: for Propofol AUC0-6hr increase after 14 days compared with Day 1 / Propofol Cmax increase after 14 days compared with Day 1: 160-mg/kg
Procedure: The purpose of Study No. 15-4 (GLP) was to determine the potential toxicity of fospropofol in Beagle dogs when administered once daily by oral gavage for 14 days. […] Because the treatment-related clinical observations (consistent with the expected transient sedative actions of fospropofol) and effects on hematology and clinical chemistry parameters were considered nonadverse, the NOAEL was determined to be 160 mg/kg/day (3200 mg/m^2/day).

[2] = Study A16 Part 1: PK of single ascending oral doses of fospropofol disodium (200 to 2000 mg), fasted healthy adults; type: in vivo, human; conditions: for AUC(0-inf) / Cmax / Tmax / AUC(0-t) / half-life: both sexes, human, plasma
Procedure: Part 1 of Study A16 was a double-blind, randomized, placebo-controlled study to investigate the safety-tolerability and PK of oral administration of single ascending doses of fospropofol disodium to healthy adult male and female volunteers.
Subjects were healthy adults (age 18-55 years inclusive, BMI 18-29.9 kg/m^2). Separate cohorts of 12 subjects each were randomized to receive fospropofol disodium at doses of 200, 400, 800, 1000, 1200, 1600, or 2000 mg (n=10 per cohort) or matching placebo (n=2 per cohort).
Subjects were admitted to the clinical unit for an overnight fast (Day −1), administered study drug on Day 1, and remained in the clinical unit until Day 2.
Fospropofol disodium was formulated as powder in an HPMC capsule, each capsule containing 200 mg of fospropofol disodium (weight adjusted for water content). Placebo was administered as an appropriate number of matching capsules.
Based on PK results from the early cohorts, sampling times were optimized beginning with Cohort 3 (800 mg) to preclose, 5, 10, 15, 20, 25, 30, 37, and 45, minutes and 1, 2, 4, 6, and 9 hours after closing.

[3] = Study A16 Part 2: PK of a single dose of 1200 mg fospropofol disodium following a high-fat meal; type: in vivo, human
Procedure: Part 2 of Study A16 was a double-blind, placebo-controlled, single-close pilot study to investigate the PK, safety, and tolerability of 1200 mg of fospropofol disodium administered to healthy adult men and women following a high-fat meal.
Subjects were healthy adults (age 18-55 years inclusive, BMI 18-29.9 kg/m^2). A separate cohort of 15 subjects was randomly assigned to receive a single oral dose of either fospropofol disodium (n=12) or matching placebo (n=3) within 30 minutes (±1 minute) after the start of a standardized high-fat meal.
Subjects were admitted to the clinical unit for an overnight fast (Day −1), administered study drug on Day 1 within 30 minutes of the start a standardized high-fat meal, and remained in the clinical unit until Day 2.
Fospropofol disodium was formulated as powder in 6 HPMC capsules, each capsule containing 200 mg of fospropofol disodium (weight adjusted for water content). Placebo was administered as 6 matching capsules.

[4] = 200, 400, 800, and 1000 mg cohorts
[5] = oral fospropofol disodium 200 mg, mean
[6] = oral fospropofol disodium 400 mg, mean
[7] = oral fospropofol disodium 800 mg, mean
[8] = oral fospropofol disodium 1000 mg, mean, n = 9
[9] = oral fospropofol disodium 1600 mg, mean
[10] = oral fospropofol disodium 2000 mg, mean

CC(C)c1cccc(C(C)C)c1O [propofol, 2,6-diisopropylphenol]
Propofol AUC0-6hr increase after 14 days compared with Day 1 ([1]; females): over 5 fold | Propofol Cmax increase after 14 days compared with Day 1 ([1]; females): ~3 fold | Propofol AUC0-6hr increase after 14 days compared with Day 1 ([1]; males): over 2 fold | Propofol Cmax increase after 14 days compared with Day 1 ([1]; males): about 7 fold | Tmax ([1]; Beagle, dog, plasma, po, Propofol Tmax, most groups): 5 to 60 min | Increase of propofol Cmax and AUC0-6hr with dose ([1]; Day 1, both sexes): close proportional | Increase of propofol Cmax and AUC0-6hr with dose ([1]; Day 14, both sexes): more than close proportional | half-life ([1]; female, Beagle, dog, plasma, po, females): 30 to 78 min | half-life ([1]; male, Beagle, dog, plasma, po, males): 48 to 108 min | Dose proportionality of propofol AUC0-2h and Cmax ([2]; 200 mg to 2000 mg): close proportional | Dose proportionality of propofol AUC0-T and AUC0-∞ ([2]; 200 mg to 2000 mg): slightly greater than close-proportional | Highest observed propofol Cmax relative to the mean Cmax of the cohort [2, 4]: greater than 2 times | Highest observed propofol Cmax: standard deviations above the cohort mean [2, 4]: greater than 2 standard deviations | Dose proportionality of propofol exposure (both Cmax and AUC) ([2]; 200 to 2000 mg, preliminary PK data): approximately close proportional | Highest observed propofol Cmax relative to mean Cmax ([2]; 800-mg cohort): approximately 3.7 fold | AUC(0-inf) ([2]; oral, 200 mg, Propofol AUC0-inf (arithmetic mean, n=10), after a single 200-mg capsule): 118 ng·h/mL | AUC(0-inf) ([2]; oral, 200 mg, Propofol AUC0-inf (geometric mean, n=10), after a single 200-mg capsule): 112 ng·h/mL | Cmax ([2]; oral, 200 mg, Propofol Cmax (arithmetic mean, n=10), after a single 200-mg capsule): 69.4 ng/mL | Cmax ([2]; oral, 200 mg, Propofol Cmax (geometric mean, n=10), after a single 200-mg capsule): 61.7 ng/mL | Tmax ([2]; oral, 200 mg, Propofol median Tmax, 200-mg dose): 30 min | Cmax ([2]; oral, 800 mg, Highest observed propofol Cmax, 800-mg cohort): 1350 ng/mL | Cmax ([2]; oral, 800 mg, Mean propofol Cmax, 800 mg cohort): 362 ng/mL | AUC(0-inf) ([2]; oral, 800 mg, Propofol AUC0-inf (arithmetic mean, n=10), single dose of 800 mg (four 200 mg capsules)): 559 ng·h/mL | Cmax ([2]; oral, 800 mg, Propofol Cmax (arithmetic mean, n=10), single dose of 800 mg (four 200 mg capsules)): 362 ng/mL | Tmax ([2]; oral, 1200 mg, Propofol Tmax (median), fasting conditions): 37 min | Tmax ([2]; oral, 2000 mg, Propofol median Tmax, doses of 1600 or 2000 mg): 45 min | AUC(0-inf) ([2]; po, 200 mg, Propofol AUC0-∞, oral fospropofol disodium 200 mg, mean): 118 ng·h/mL | Cmax ([2]; po, 200 mg, Propofol Cmax Maximum, oral fospropofol disodium 200 mg): 191 ng/mL | Cmax ([2]; po, 200 mg, Propofol Cmax Mean (SD), oral fospropofol disodium 200 mg): 69 ng/mL | Cmax ([2]; po, 200 mg, Propofol Cmax Minimum, oral fospropofol disodium 200 mg): 35.1 ng/mL | Cmax ([2]; po, 200 mg, Propofol Cmax, oral fospropofol disodium 200 mg, mean): 69 ng/mL | Tmax ([2]; po, 200 mg, Propofol Tmax, oral fospropofol disodium 200 mg, median): 30 min | AUC(0-inf) ([2]; po, 400 mg, Propofol AUC0-∞, oral fospropofol disodium 400 mg, mean): 298 ng·h/mL | Cmax ([2]; po, 400 mg, Propofol Cmax Maximum, oral fospropofol disodium 400 mg): 499 ng/mL | Cmax ([2]; po, 400 mg, Propofol Cmax Mean (SD), oral fospropofol disodium 400 mg): 201 ng/mL | Cmax ([2]; po, 400 mg, Propofol Cmax Minimum, oral fospropofol disodium 400 mg): 33.5 ng/mL | Cmax ([2]; po, 400 mg, Propofol Cmax, oral fospropofol disodium 400 mg, mean): 201 ng/mL | Tmax ([2]; po, 400 mg, Propofol Tmax, oral fospropofol disodium 400 mg, median): 30 min | AUC(0-inf) ([2]; po, 800 mg, Propofol AUC0-∞, oral fospropofol disodium 800 mg, mean): 577 ng·h/mL | Cmax ([2]; po, 800 mg, Propofol Cmax Maximum, oral fospropofol disodium 800 mg): 1350 ng/mL | Cmax ([2]; po, 800 mg, Propofol Cmax Mean (SD), oral fospropofol disodium 800 mg): 362 ng/mL | Cmax ([2]; po, 800 mg, Propofol Cmax Minimum, oral fospropofol disodium 800 mg): 127 ng/mL | Cmax ([2]; po, 800 mg, Propofol Cmax, oral fospropofol disodium 800 mg, mean): 362 ng/mL | Tmax ([2]; po, 800 mg, Propofol Tmax, oral fospropofol disodium 800 mg, median): 37.2 min | AUC(0-inf) ([2]; po, 1000 mg, Propofol AUC0-∞, oral fospropofol disodium 1000 mg, mean, n = 9): 887 ng·h/mL | Cmax ([2]; po, 1000 mg, Propofol Cmax Maximum, oral fospropofol disodium 1000 mg, n = 9): 681 ng/mL | Cmax ([2]; po, 1000 mg, Propofol Cmax Mean (SD), oral fospropofol disodium 1000 mg, n = 9): 403 ng/mL | Cmax ([2]; po, 1000 mg, Propofol Cmax Minimum, oral fospropofol disodium 1000 mg, n = 9): 267 ng/mL | Cmax ([2]; po, 1000 mg, Propofol Cmax, oral fospropofol disodium 1000 mg, mean, n = 9): 403 ng/mL | Tmax ([2]; po, 1000 mg, Propofol Tmax, oral fospropofol disodium 1000 mg, median, n = 9): 45 min | Cmax ([2]; po, 1200 mg, Propofol Cmax Maximum, oral fospropofol disodium 1200 mg): 1190 ng/mL | Cmax ([2]; po, 1200 mg, Propofol Cmax Mean (SD), oral fospropofol disodium 1200 mg): 641 ng/mL | Cmax ([2]; po, 1200 mg, Propofol Cmax Minimum, oral fospropofol disodium 1200 mg): 193 ng/mL | Cmax ([2]; po, 1600 mg, Propofol Cmax Maximum, oral fospropofol disodium 1600 mg): 1170 ng/mL | Cmax ([2]; po, 1600 mg, Propofol Cmax Mean (SD), oral fospropofol disodium 1600 mg): 748 ng/mL | Cmax ([2]; po, 1600 mg, Propofol Cmax Minimum, oral fospropofol disodium 1600 mg): 229 ng/mL | AUC(0-inf) ([2]; po, 2000 mg, Propofol AUC0-∞, oral fospropofol disodium 2000 mg, mean): 2250 ng·h/mL | Cmax ([2]; po, 2000 mg, Propofol Cmax Maximum, oral fospropofol disodium 2000 mg): 1620 ng/mL | Cmax ([2]; po, 2000 mg, Propofol Cmax Mean (SD), oral fospropofol disodium 2000 mg): 806 ng/mL | Cmax ([2]; po, 2000 mg, Propofol Cmax Minimum, oral fospropofol disodium 2000 mg): 200 ng/mL | Cmax ([2]; po, 2000 mg, Propofol Cmax, oral fospropofol disodium 2000 mg, mean): 806 ng/mL | Tmax ([2]; po, 2000 mg, Propofol Tmax, oral fospropofol disodium 2000 mg, median): 45 min | AUC(0-t) [2, 5]: 103 ng·h/mL | half-life [2, 5]: 228 min | AUC(0-t) [2, 6]: 276 ng·h/mL | half-life [2, 6]: 176 min | AUC(0-t) [2, 7]: 551 ng·h/mL | half-life [2, 7]: 116 min | AUC(0-t) [2, 8]: 846 ng·h/mL | half-life [2, 8]: 121 min | half-life [2, 9]: 177 min | AUC(0-t) [2, 10]: 2000 ng·h/mL | half-life [2, 10]: 118 min | Propofol concentration relative to Cmax ([2]; by 4 hours after dosing): less than 25 % of Cmax | Propofol Cmax CV ([2]; oral fospropofol disodium 200 mg): 64% | Propofol CL/F [2, 5]: 1889 L/h | Propofol Cmax CV ([2]; oral fospropofol disodium 400 mg): 63% | Propofol CL/F [2, 6]: 1658 L/h | Propofol Cmax CV ([2]; oral fospropofol disodium 800 mg): 99% | Propofol CL/F [2, 7]: 1561 L/h | Propofol CL/F [2, 8]: 1213 L/h | Propofol Cmax CV ([2]; oral fospropofol disodium 1000 mg, n = 9): 30% | Propofol Cmax CV ([2]; oral fospropofol disodium 1200 mg): 46% | Propofol CL/F ([2]; oral fospropofol disodium 1200 mg, Fasted (Cohort 5), n = 10, mean): 1260 L/h | Propofol CL/F ([2]; oral fospropofol disodium 1200 mg, mean): 1260 L/h | Propofol Cmax CV ([2]; oral fospropofol disodium 1600 mg): 44% | Propofol CL/F [2, 9]: 1182 L/h | Propofol Cmax CV ([2]; oral fospropofol disodium 2000 mg): 51% | Propofol CL/F [2, 10]: 933 L/h | Propofol mean AUC following a high-fat meal relative to fasting ([3]; 1200 mg): approximately 40% | Propofol mean Cmax under fed conditions relative to fasting ([3]; 1200 mg): approximately 19% | Effect of high-fat meal on exposure ([3]; 1200 mg within 30 minutes after the start of a high-fat meal): significant reduction in exposure | Tmax ([3]; both sexes, human, plasma, oral, 1200 mg, after a high-fat meal): 120 min | Propofol CL/F ([3]; oral fospropofol disodium 1200 mg, Fed (Cohort 8), n = 7/12, mean): 3111 L/h
